Measurements published in paper PMC11337205, “Unraveling Interspecies Differences in the Phase I Hepatic Metabolism of Alternariol and Alternariol Monomethyl Ether: Closing Data Gaps for a Comprehensive Risk Assessment” (Chemical Research in Toxicology, 2024).
Where two headings read alike, the source gives them in different places.

Experiments:
[1] = Phase I metabolism kinetics (parent toxin loss) in NADPH-fortified human liver microsomes, LC-MS/MS; assay type: in vitro ADME; details: for microsomal CLint: human, pH 7.4, human LMs, read-out: CLint (intrinsic clearance)
Experimental: Pooled human LMs and pooled Sprague–Dawley rat hepatic microsomes, both originating from male donors, were purchased from Sigma-Aldrich (St. Louis, MO, USA) and Gibco, Thermo Fisher Scientific (Waltham, MA, USA), respectively. Porcine LMs were prepared according to an in-house-developed protocol based on the publication of Knights et al.[32] The liver of an approximately four-month-old female “Large White” (or “German Edelschwein”) pig was obtained from a local slaughterhouse. After slaughtering, the liver was placed on ice for about an hour, kept in ice-cold 50 mM tris(hydroxymethyl)aminomethane hydrochloride (Tris–HCl) (pH 7.4) for an additional hour while being transported, and processed immediately.
The kinetics of the phase I metabolism of AOH and AME was investigated by incubating human, rat (both 1 mg protein/mL), and porcine LMs (2 mg protein/mL) with 1, 10, 20, 50, and 100 μM AOH or 1, 10, 20, and 50 μM AME based on the protocol by Al-Subeihi et al.[34] The incubation solution contained a final concentration of 3 mM NADPH and 1 mM ascorbic acid in 200 mM Tris–HCl (pH 7.4). After preincubation (37 °C, 1 min, mixing at 250–300 rpm), the toxin stock was added in a 1:100 dilution, resulting in a total DMSO content of 1% and the desired toxin concentration. DMSO was selected for this assay because it is the least inhibitory of the solvents studied by Busby et al. on CYP1A1,[35] the primary enzyme involved in the hydroxylation of AOH and AME.[26] The well-established solubility of the test compounds in DMSO and DMSO-containing aqueous buffers facilitated laboratory work and ensured consistency with existing literature, thereby improving the comparability of results across studies, including those of Pfeiffer and colleagues.[25] In a preliminary investigation, incubation times of 5 and 10 min were chosen because they fall within the linear range of the transformation rate–time relationship, thereby ensuring initial rate conditions (Figure S1). When the selected incubation time (0–10 min) passed, one part of the sample was pipetted into two parts of ice-cold extraction solvent (acetonitrile–methanol, 1:1, v/v) for reaction termination. Subsequently, the samples were placed into the freezer (−20 °C) for at least an hour, centrifuged (15 min, 18,000g, 4 °C), and further diluted in methanol–water (3:7, v/v) prior to LC–MS measurements. In the solvent control, the toxin was substituted with DMSO in the incubation solution. Control incubations were performed without the cofactor NADPH or with heat-inactivated microsomes (98 °C, 10 min, mixing at 300 rpm).
The quantification of selected analytes using external calibration (MS parameters listed in Supporting Information Table S1) was conducted on a high-performance liquid chromatographic system (Dionex UltiMate 3000 UHPLC, Dionex Softron GmbH, Germering, Germany) coupled to a triple quadrupole mass spectrometer (TSQ Vantage, Thermo Fisher Scientific, Waltham, MA, USA), equipped with a heated electrospray ionization (ESI) interface. The applied analytical method is based on Puntscher et al.[28],[36] with slight modifications, which are specified below.
In brief, the Ascentis Express C18 column (10 cm × 2.1 mm, 2.7 μm, Supelco, Munich, DE), equipped with the Phenomenex SecurityGuard (C18 Cartridges, 4 × 2.0 mm ID, Phenomenex Ltd. Deutschland, Aschaffenburg, Germany), served as the stationary phase. Eluent A was aqueous ammonium acetate (5 mM, pH adjusted to 8.6 with a 25% ammonia solution), and eluent B was methanol. During the first minute, the column was kept at 30% eluent B. Subsequently, the eluent B content was linearly raised to 100% within 6 min. Thereafter, the column was washed with 100% eluent B for 1.5 min. Lastly, the column was re-equilibrated at the initial conditions, reaching an overall run time of 10 min. The autosampler compartment was kept at 10 °C, while the column oven temperature was maintained at 30 °C. […]

[2] = Pattern of oxidative metabolites in rat LMs by HR-MS; assay type: in vitro ADME, Sprague–Dawley rat; details: rat LMs incubated with AME
Experimental: The kinetics of the phase I metabolism of AOH and AME was investigated by incubating human, rat (both 1 mg protein/mL), and porcine LMs (2 mg protein/mL) with 1, 10, 20, 50, and 100 μM AOH or 1, 10, 20, and 50 μM AME based on the protocol by Al-Subeihi et al.[34] The incubation solution contained a final concentration of 3 mM NADPH and 1 mM ascorbic acid in 200 mM Tris–HCl (pH 7.4). After preincubation (37 °C, 1 min, mixing at 250–300 rpm), the toxin stock was added in a 1:100 dilution, resulting in a total DMSO content of 1% and the desired toxin concentration. DMSO was selected for this assay because it is the least inhibitory of the solvents studied by Busby et al. on CYP1A1,[35] the primary enzyme involved in the hydroxylation of AOH and AME.[26] The well-established solubility of the test compounds in DMSO and DMSO-containing aqueous buffers facilitated laboratory work and ensured consistency with existing literature, thereby improving the comparability of results across studies, including those of Pfeiffer and colleagues.[25] […]
Pooled high-resolution MS (HR-MS) samples were analyzed on a Vanquish UHPLC system (Thermo Fisher Scientific, Waltham, MA, USA) connected to a dual-pressure linear trap-quadrupole Orbitrap mass analyzer (Velos ETD, Thermo Fisher Scientific, Waltham, MA, USA). […]

Cc1cc(O)cc2oc(=O)c3c(O)cc(O)cc3c12 [AOH, alternariol]
Concentration decrease ([1]; human LMs, 1 µM toxin, 5 min): 28%
Concentration decrease ([1]; human LMs, 1 µM toxin, 10 min): 53%
Concentration decrease ([1]; human LMs, 10 µM toxin, 5 min): 11%
Concentration decrease ([1]; human LMs, 10 µM toxin, 10 min): 17%
Concentration decrease ([1]; human LMs, 20 µM toxin, 5 min): 10%
Concentration decrease ([1]; human LMs, 20 µM toxin, 10 min): 20%
Concentration decrease ([1]; human LMs, 50 µM toxin, 5 min): 12%
Concentration decrease ([1]; human LMs, 50 µM toxin, 10 min): 22%
Concentration decrease ([1]; human LMs, 100 µM toxin, 5 min): 20%
Concentration decrease ([1]; human LMs, 100 µM toxin, 10 min): 39%
Vmax (maximum transformation rate) ([1]; human LMs, within 10 min, Michaelis–Menten model): 3370 pmol/mg/min
microsomal CLint ([1]; male, liver microsomes, Michaelis–Menten model, ratio Vmax/Km): 25.8 µL/min/mg
microsomal CLint ([1]; male, liver microsomes, linear regression, lower concentration range): 19.9 µL/min/mg
Km ([1]; male, liver microsomes, pH 7.4, human LMs 1 mg protein/mL, NADPH, within 10 min, Michaelis–Menten model, read-out: Km (Michaelis constant)): 131 µM
relative abundance among phase I metabolites (in words) [2]: one of the main metabolites
